# From US10538555B2, “Macrocyclic inhibitors of the PD-1/PD-L1 and CD80(B7-1)/PD-L1 protein/protein interactions” (BRISTOL-MYERS SQUIBB COMPANY, priority 2014, dated 2020)
# pIC50: −log10 of the molar value. *1 amine or outer side, *2 acyl side, *3 side chain or, on linkers, in order; H or OH if unused. Where a SMILES comes first, the peptide text is derived from it. Bridges are numbered along the chain shown (N, C = ends). [ ]: non-standard residue; d: D form. ξ: configuration not given here. Phe(3,4,5-F3) = N[C@@H](Cc1cc(F)c(F)c(F)c1)C(=O)O; Phe(4-F) = N[C@@H](Cc1ccc(F)cc1)C(=O)O; d(cisHyp) = O=C(O)[C@H]1C[C@@H](O)CN1; Hyp = O=C(O)[C@@H]1C[C@@H](O)CN1; NMeF = CN[C@@H](Cc1ccccc1)C(=O)O; X1 = O=C([C@H]1COCCN1[*:1])[*:2]; NMehSer = CN[C@@H](CCO)C(=O)O; NMeNle = CCCC[C@H](NC)C(=O)O; d(hSer) = N[C@H](CCO)C(=O)O; dPip = O=C(O)[C@H]1CCCCN1; hSer = N[C@@H](CCO)C(=O)O; NMeA = CN[C@@H](C)C(=O)O; ξC = NC(CS)C(=O)O
# Biological target: T1, Human PD-L1/PD-1 (Homo sapiens, UniProt Q9NZQ7)
# T1 construct: TVMV protease cleavage site (C); made in house; host or cells: HEK293T cells
# T1 sequence (Q9NZQ7 with tags, fused parts or gaps): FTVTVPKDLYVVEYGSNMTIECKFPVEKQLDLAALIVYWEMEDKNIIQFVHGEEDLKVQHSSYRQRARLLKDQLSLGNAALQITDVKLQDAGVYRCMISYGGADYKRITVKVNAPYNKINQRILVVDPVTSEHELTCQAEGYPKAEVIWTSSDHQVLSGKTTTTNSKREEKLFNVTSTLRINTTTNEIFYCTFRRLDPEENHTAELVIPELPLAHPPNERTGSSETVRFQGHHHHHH
# Test: HTRF Human PD-L1/PD-1 binding assay (PD-1-Ig/PD-L1-His)
# Conditions: PD-L1-His 10 nM, PD-1-Ig 20 nM; class symbol; read-out: HTRF Human PD-L1/PD-1 Binding Assay IC50 Range
# Outline: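 Compound preincubated 15 min with PD-L1-His (10 nM final), then PD-1-Ig (20 nM final) added for 15 min in dPBS with 0.1% BSA and 0.05% Tween-20. Detection by Eu-cryptate anti-Ig (1 nM) and APC anti-His (20 nM) after 30 min; 665/620 nm HTRF ratio. Proteins expressed in HEK293T.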
row,pIC50,SMILES
1,8.00 to 9.00,"CCCC[C@H]1C(=O)N2C[C@H](O)C[C@@H]2C(=O)N[C@@H](CC(=O)O)C(=O)N[C@@H](C(C)C)C(=O)N(C)[C@@H](Cc2ccccc2)C(=O)N[C@@H](CC(=O)O)C(=O)N2CCOC[C@@H]2C(=O)N[C@@H](Cc2c[nH]c3ccccc23)C(=O)N[C@@H](Cc2ccc(O)cc2)C(=O)N[C@@H](CCOC)C(=O)N[C@H](C(=O)NCC(N)=O)CSCC(=O)N[C@@H](Cc2cc(F)c(F)c(F)c2)C(=O)N(C)[C@@H](Cc2ccccc2)C(=O)N1C [Example 10161] ({CH2CO}-[Phe(3,4,5-F3)][NMeF][NMeNle][d(cisHyp)]DV[NMeF]D[X1]WY[hSer](Me)CG-NH2; thioether N-13)"
2,7.00 to 8.00,CCCC[C@H]1C(=O)N(C)[C@@H](CCCC)C(=O)N[C@@H](CCCNC(=N)N)C(=O)NC(C(=O)NCC(N)=O)CSCC(=O)N[C@@H](Cc2ccc(O)cc2)C(=O)N(C)[C@@H](C)C(=O)N[C@@H](CC(N)=O)C(=O)N2CCC[C@H]2C(=O)N[C@@H](Cc2cnc[nH]2)C(=O)N[C@H](CCO)C(=O)N2C[C@H](O)C[C@H]2C(=O)N[C@@H](Cc2c[nH]c3ccccc23)C(=O)N[C@@H](CO)C(=O)N[C@@H](Cc2c[nH]c3ccccc23)C(=O)N1C (stereo partly drawn) [Example 9125] ({CH2CO}-Y[NMeA]NPH[d(hSer)][Hyp]WSW[NMeNle][NMeNle]R[ξC]G-NH2; thioether N-14)
3,6.00 to 7.00,CCCC[C@H]1C(=O)N2CCC[C@@H]2C(=O)N[C@@H](CC(=O)O)C(=O)N[C@@H](C(C)C)C(=O)N(C)[C@@H](CCOC)C(=O)N[C@@H](CCC(N)=O)C(=O)N2CCCC[C@@H]2C(=O)N[C@@H](Cc2c[nH]c3ccccc23)C(=O)N[C@@H](Cc2ccc(O)cc2)C(=O)N[C@@H](CC(C)C)C(=O)N[C@H](C(=O)NCC(N)=O)CSCC(=O)N[C@@H](Cc2ccc(F)cc2)C(=O)N(C)[C@@H](Cc2ccccc2)C(=O)N1C [Example 9224] ({CH2CO}-[Phe(4-F)][NMeF][NMeNle][dP]DV[NMehSer](Me)Q[dPip]WYLCG-NH2; thioether N-13)
